From patent US11655246B2, “Aminothiazole compounds as inhibitors of CTPS1” (STEP PHARMA S.A.S., priority 2017, dated 2023)
Structures can show the parent of a compound that is named as a salt.

What follows are compounds tested against T1, human CTPS1 (Homo sapiens, UniProt P17812) (assay: Human CTPS1 enzyme inhibition (ADP-Glo Max assay)). Settings: Table 18, additional potency data, 25° C., read-out: CTPS1 (Human CTPS1 Enzyme Inhibition data grouped by potency range).
T1 construct: purchased Proteros biostructures GmbH
T1 sequence (P17812 1-591): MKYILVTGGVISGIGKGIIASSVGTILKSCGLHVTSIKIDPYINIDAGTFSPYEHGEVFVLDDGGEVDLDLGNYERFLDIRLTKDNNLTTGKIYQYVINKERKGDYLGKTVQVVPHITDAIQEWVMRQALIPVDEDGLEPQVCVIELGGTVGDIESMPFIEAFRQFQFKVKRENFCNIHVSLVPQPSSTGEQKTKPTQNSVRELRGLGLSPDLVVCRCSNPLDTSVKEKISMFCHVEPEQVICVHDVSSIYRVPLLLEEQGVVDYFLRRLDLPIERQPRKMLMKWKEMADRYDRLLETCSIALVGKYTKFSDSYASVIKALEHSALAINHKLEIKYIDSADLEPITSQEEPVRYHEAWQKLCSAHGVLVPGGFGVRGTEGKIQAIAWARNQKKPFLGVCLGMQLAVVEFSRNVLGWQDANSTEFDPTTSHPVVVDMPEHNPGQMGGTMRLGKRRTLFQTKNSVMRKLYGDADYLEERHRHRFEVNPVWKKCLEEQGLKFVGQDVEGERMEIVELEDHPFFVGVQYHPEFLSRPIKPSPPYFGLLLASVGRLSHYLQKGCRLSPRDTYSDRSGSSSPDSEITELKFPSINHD
Type: biochemical
Outline: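 ADP-Glo Max luminescence detection of ATP-to-ADP conversion by the enzyme, in 50 mM Tris, 10 mM MgCl2, 0.01% Tween-20, pH 8.0, with 2 mM L-cysteine added fresh. Enzyme preincubated with compound 10 minutes at 25° C. Percentage inhibition calculated per compound concentration.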

Row | IC50 | Compound
1 | 1000 to 10000 nM | CCC(C(=O)Nc1ccc(-c2cncc(C(C)(C)OC)n2)cn1)c1csc(NS(=O)(=O)C2CC2)n1 (stereo not shown) [T402, 2-(2-(cyclopropanesulfonamido)thiazol-4-yl)-N-(5-(6-(2-methoxypropan-2-yl)pyrazin-2-yl)pyridin-2-yl)butanamide]
2 | 100 to 1000 nM | CCC(C(=O)Nc1ccc(-c2cncc(C(C)(C)OC)n2)cc1F)c1csc(NS(=O)(=O)C2CC2)n1 (stereo not shown) [T403, 2-(2-(cyclopropanesulfonamido)thiazol-4-yl)-N-(2-fluoro-4-(6-(2-methoxypropan-2-yl)pyrazin-2-yl)phenyl)butanamide]
3 | 100 to 1000 nM | CCC(C(=O)Nc1ccc(-c2cncc(C#N)n2)cc1F)c1csc(NS(=O)(=O)C2CC2)n1 (stereo not shown) [T404, N-(4-(6-cyanopyrazin-2-yl)-2-fluorophenyl)-2-(2-(cyclopropanesulfonamido)thiazol-4-yl)butanamide]
4 | < 100 nM | CCc1cncc(-c2ccc(NC(=O)C(CC)c3csc(NS(=O)(=O)C4CC4)n3)c(F)c2)n1 (stereo not shown) [T405, 2-(2-(cyclopropanesulfonamido)thiazol-4-yl)-N-(4-(6-ethylpyrazin-2-yl)-2-fluorophenyl)butanamide]
5 | 100 to 1000 nM | CCC(C(=O)Nc1ccc(-c2cncc(C(C)(C)OC)n2)cc1)c1csc(NS(=O)(=O)C2CC2)n1 (stereo not shown) [T406, 2-(2-(cyclopropanesulfonamido)thiazol-4-yl)-N-(4-(6-(2-methoxypropan-2-yl)pyrazin-2-yl)phenyl)butanamide]
6 | < 100 nM | CCOc1cncc(-c2ccc(NC(=O)C(NC(=O)OC(C)(C)C)c3csc(NS(=O)(=O)C4CC4)n3)cc2)n1 (stereo not shown) [T407, tert-butyl (1-(2-(cyclopropanesulfonamido)thiazol-4-yl)-2-((4-(6-ethoxypyrazin-2-yl)phenyl)amino)-2-oxoethyl)carbamate]
7 | < 100 nM | COC(C(=O)Nc1ccc(-c2cncc(C(F)(F)F)n2)cc1F)c1csc(NS(=O)(=O)C2CC2)n1 (stereo not shown) [T408, 2-(2-(cyclopropanesulfonamido)thiazol-4-yl)-N-(2-fluoro-4-(6-(trifluoromethyl)pyrazin-2-yl)phenyl)-2-methoxyacetamide]
8 | < 100 nM | CCOc1cncc(-c2ccc(NC(=O)C(OC)c3csc(NS(=O)(=O)C4CC4)n3)c(F)c2)n1 (stereo not shown) [T409, 2-(2-(cyclopropanesulfonamido)thiazol-4-yl)-N-(4-(6-ethoxypyrazin-2-yl)-2-fluorophenyl)-2-methoxyacetamide]
9 | < 100 nM | COC(C(=O)Nc1ccc(-c2cncc(OC(C)C)n2)cc1)c1csc(NS(=O)(=O)C2CC2)n1 (stereo not shown) [T411, 2-(2-(cyclopropanesulfonamido)thiazol-4-yl)-N-(4-(6-isopropoxypyrazin-2-yl)phenyl)-2-methoxyacetamide]
10 | 100 to 1000 nM | NC(C(=O)Nc1ccc(-c2cncc(C(F)(F)F)n2)cn1)c1csc(NS(=O)(=O)C2CC2)n1 (stereo not shown) [T417, 2-Amino-2-(2-(cyclopropanesulfonamido)thiazol-4-yl)-N-(5-(6-(trifluoromethyl)pyrazin-2-yl)pyridin-2-yl)acetamide hydrochloride]
11 | 100 to 1000 nM | NC(C(=O)Nc1ccc(-c2cncc(C(F)(F)F)n2)cc1F)c1csc(NS(=O)(=O)C2CC2)n1 (stereo not shown) [T418, 2-Amino-2-(2-(cyclopropanesulfonamido)thiazol-4-yl)-N-(2-fluoro-4-(6-(trifluoromethyl)pyrazin-2-yl)phenyl)acetamide]
12 | < 100 nM | CCOc1cncc(-c2ccc(NC(=O)C(N)c3csc(NS(=O)(=O)C4CC4)n3)c(F)c2)n1 (stereo not shown) [T419, 2-Amino-2-(2-(cyclopropanesulfonamido)thiazol-4-yl)-N-(4-(6-ethoxypyrazin-2-yl)-2-fluorophenyl)acetamide hydrochloride]
13 | < 100 nM | CN(C)C(C(=O)Nc1ccc(-c2cncc(C(F)(F)F)n2)cc1F)c1csc(NS(=O)(=O)C2CC2)n1 (stereo not shown) [T420, 2-(2-(Cyclopropanesulfonamido)thiazol-4-yl)-2-(dimethylamino)-N-(2-fluoro-4-(6-(trifluoromethyl)pyrazin-2-yl)phenyl)acetamide]

Further lines, the compound ahead of its results:

Row | Compound | IC50
14 | CCS(=O)(=O)Nc1nc(C(C)(C)C(=O)Nc2ccc(-c3cncc(C#N)c3)cc2)cs1 [T384, N-(4-(5-cyanopyridin-3-yl)phenyl)-2-(2-(ethylsulfonamido)thiazol-4-yl)-2-methylpropanamide] | 100 to 1000 nM
15 | CCS(=O)(=O)Nc1nc(C(C)(C)C(=O)Nc2ccc(-c3cncc(F)c3)cc2)cs1 [T385, 2-(2-(ethylsulfonamido)thiazol-4-yl)-N-(4-(5-fluoropyridin-3-yl)phenyl)-2-methylpropanamide] | < 100 nM
16 | CCS(=O)(=O)Nc1nc(C(C)(C)C(=O)Nc2ccc(-c3cccnc3)cc2)cs1 [T386, 2-(2-(ethylsulfonamido)thiazol-4-yl)-2-methyl-N-(4-(pyridin-3-yl)phenyl)propanamide] | 100 to 1000 nM
17 | CCS(=O)(=O)Nc1nc(C(C)(C)C(=O)Nc2ccc(-c3cncc(C(F)(F)F)n3)cc2)cs1 [T387, 2-(2-(ethylsulfonamido)thiazol-4-yl)-2-methyl-N-(4-(6-(trifluoromethyl)pyrazin-2-yl)phenyl)propanamide] | < 100 nM
18 | CCS(=O)(=O)Nc1nc(C(C)(C)C(=O)Nc2ccc(-c3cncc(OC(C)C)n3)cc2)cs1 [T388, 2-(2-(ethylsulfonamido)thiazol-4-yl)-N-(4-(6-isopropoxypyrazin-2-yl)phenyl)-2-methylpropanamide] | < 100 nM
19 | CC(C)(C(=O)Nc1ccc(-c2cncc(C(F)(F)F)c2)cn1)c1csc(NS(C)(=O)=O)n1 [T389, 2-methyl-2-(2-(methylsulfonamido)thiazol-4-yl)-N-(5′-(trifluoromethyl)-[3,3′-bipyridin]-6-yl)propanamide] | 100 to 1000 nM
20 | CCOc1cncc(-c2ccc(NC(=O)C(C)(C)c3csc(NS(C)(=O)=O)n3)nc2)n1 [T390, N-(5-(6-ethoxypyrazin-2-yl)pyridin-2-yl)-2-methyl-2-(2-(methylsulfonamido)thiazol-4-yl)propanamide] | < 100 nM
21 | CC(C)(C(=O)Nc1ccc(-c2cncc(C(F)(F)F)n2)cc1F)c1csc(NS(C)(=O)=O)n1 [T391, N-(2-fluoro-4-(6-(trifluoromethyl)pyrazin-2-yl)phenyl)-2-methyl-2-(2-(methylsulfonamido)thiazol-4-yl)propanamide] | < 100 nM
22 | CC(C)Oc1cncc(-c2ccc(NC(=O)C(C)(C)c3csc(NS(C)(=O)=O)n3)c(F)c2)n1 [T392, N-(2-fluoro-4-(6-isopropoxypyrazin-2-yl)phenyl)-2-methyl-2-(2-(methylsulfonamido)thiazol-4-yl)propanamide] | < 100 nM
23 | CC(C)(C(=O)Nc1ccc(-c2cncc(Cl)c2)cc1)c1csc(NS(C)(=O)=O)n1 [T393, N-(4-(5-chloropyridin-3-yl)phenyl)-2-methyl-2-(2-(methylsulfonamido)thiazol-4-yl)propanamide] | 100 to 1000 nM
24 | CC(C)(C(=O)Nc1ccc(-c2cncc(C(F)(F)F)n2)cc1)c1csc(NS(C)(=O)=O)n1 [T394, 2-methyl-2-(2-(methylsulfonamido)thiazol-4-yl)-N-(4-(6-(trifluoromethyl)pyrazin-2-yl)phenyl)propanamide] | < 100 nM
25 | CC(C)Oc1cncc(-c2ccc(NC(=O)C(C)(C)c3csc(NS(C)(=O)=O)n3)cc2)n1 [T395, N-(4-(6-isopropoxypyrazin-2-yl)phenyl)-2-methyl-2-(2-(methylsulfonamido)thiazol-4-yl)propanamide] | < 100 nM
26 | CC(C)(C(=O)Nc1ccc(-c2cncc(C(F)(F)F)n2)cn1)c1csc(NS(=O)(=O)CC2CC2)n1 [T396, 2-(2-((cyclopropylmethyl)sulfonamido)thiazol-4-yl)-2-methyl-N-(5-(6-(trifluoromethyl)pyrazin-2-yl)pyridin-2-yl)propanamide] | 100 to 1000 nM
27 | O=C(Nc1ccc(-c2cncc(C(F)(F)F)n2)cc1)C1(c2csc(NS(=O)(=O)C3CC3)n2)CC1 [T397, 1-(2-(cyclopropanesulfonamido)thiazol-4-yl)-N-(4-(6-(trifluoromethyl)pyrazin-2-yl)phenyl)cyclopropane-1-carboxamide] | 100 to 1000 nM
28 | CCOc1cncc(-c2ccc(NC(=O)C3(c4csc(NS(=O)(=O)C5CC5)n4)CC3)cc2)n1 [T398, 1-(2-(cyclopropanesulfonamido)thiazol-4-yl)-N-(4-(6-ethoxypyrazin-2-yl)phenyl)cyclopropane-1-carboxamide] | < 100 nM
29 | COCCC(C(=O)Nc1ccc(-c2cncc(C(F)(F)F)n2)cc1F)c1csc(NS(=O)(=O)C2CC2)n1 (stereo not shown) [T399, 2-(2-(cyclopropanesulfonamido)thiazol-4-yl)-N-(2-fluoro-4-(6-(trifluoromethyl)pyrazin-2-yl)phenyl)-4-methoxybutanamide] | < 100 nM
30 | COCCC(C(=O)Nc1ccc(-c2cncc(OC(C)C)n2)cc1F)c1csc(NS(=O)(=O)C2CC2)n1 (stereo not shown) [T400, 2-(2-(cyclopropanesulfonamido)thiazol-4-yl)-N-(2-fluoro-4-(6-isopropoxypyrazin-2-yl)phenyl)-4-methoxybutanamide] | < 100 nM
31 | CCC(C(=O)Nc1ccc(-c2cncc(C(C)C)n2)cn1)c1csc(NS(=O)(=O)C2CC2)n1 (stereo not shown) [T401, 2-(2-(cyclopropanesulfonamido)thiazol-4-yl)-N-(5-(6-isopropylpyrazin-2-yl)pyridin-2-yl)butanamide] | 100 to 1000 nM
